In patent publication US20120214822A1 (ASTRAZENECA AB, priority 2007, published 2012) one finds pIC50 data, which are given here for 30 compounds.

Each structure is given as a SMILES string. Counter-ions that a name gives are not always drawn.

What is called pIC50 is the IC50 on a negative log10 scale, so that one unit is a factor of ten.

Sequence of human active recombinant p38α-6His tagged (Q16539 whole entry): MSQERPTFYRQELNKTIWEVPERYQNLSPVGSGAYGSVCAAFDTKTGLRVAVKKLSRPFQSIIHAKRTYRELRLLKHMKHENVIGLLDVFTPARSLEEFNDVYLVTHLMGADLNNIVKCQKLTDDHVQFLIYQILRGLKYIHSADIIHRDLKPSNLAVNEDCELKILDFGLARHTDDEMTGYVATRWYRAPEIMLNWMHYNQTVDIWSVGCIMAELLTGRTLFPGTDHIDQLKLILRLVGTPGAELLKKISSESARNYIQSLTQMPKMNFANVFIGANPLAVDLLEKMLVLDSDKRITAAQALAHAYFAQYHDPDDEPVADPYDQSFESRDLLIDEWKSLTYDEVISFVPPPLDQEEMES

The assay has as its target human active recombinant p38α-6His tagged (Homo sapiens, UniProt Q16539). Briefly: P38 Alpha Enzyme Assay (AlphaScreen, biotinylated-ATF2 substrate).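 Further: 0.5 nM final p38α, reaction started with ATP and run 45 min at 37 °C, phospho-ATF2 read by antibody-based AlphaScreen, background wells quenched with EDTA before ATP.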 It is filed as biochemical. As to conditions: p38 alpha enzyme inhibition; means of replicate determinations; 4 h pre-incubation at 37° C.; SD of assay 0.2-0.3 log units. (In general: In Alpha technology, singlet oxygen from a donor bead excites a nearby acceptor bead.)
With `Cc1ccc(C(=O)NC2CC2)cc1-n1ccnc(N(CCN(C)C)Cc2ccccc2)c1=O` [Example 121, N-Cyclopropyl-3-[3-[[2-(dimethylamino)ethyl](phenylmethyl)amino]-2-oxo-1(2H)-pyrazinyl]-4-methyl-benzamide], the pIC50 was 6.
For `CCNCCOc1ccccc1C(C)(C)Nc1nccn(-c2cc(C(=O)NC3CC3)ccc2Cl)c1=O` [Example 333, 4-Chloro-N-cyclopropyl-3-[3-[(1-{2-[2-(ethylamino)ethoxy]phenyl}-1-methylethyl)amino]-2-oxopyrazin-1(2H)-yl]benzamide] the value was 9.5; for `CCNCCOc1c(F)cccc1C1(Nc2nccn(-c3cc(C(=O)NC4CC4)ccc3C)c2=O)CC1` [Example 286, N-Cyclopropyl-3-{3-[(1-{2-[2-(ethylamino)ethoxy]-3-fluorophenyl}cyclopropyl)amino]-2-oxopyrazin-1(2H)-yl}-4-methylbenzamide], 9.3; for `CCNC(=O)c1ccc(C)c(-n2ccnc(NC(C)(C)c3ccccc3OCCNC)c2=O)c1` [Example 220, N-Ethyl-4-methyl-3-[3-[[1-methyl-1-[2-[2-(methylamino)ethoxy]phenyl]ethyl]amino]-2-oxo-1(2H)-pyrazinyl]-benzamide], 8.3.
With `Cc1c(F)cc(C(=O)NC2CC2)cc1-n1ccnc(NC2(c3ccccc3OCCNC[C@H](C)O)CC2)c1=O` [Example 263, N-Cyclopropyl-3-fluoro-5-[3-[[1-[2-[2-[[(2S)-2-hydroxypropyl]amino]ethoxy]phenyl]cyclopropyl]amino]-2-oxo-1(2H)-pyrazinyl]-4-methyl-benzamide] the figure was 10.3.
In the case of `CONC(=O)c1ccc(C)c(-n2ccnc(NCc3ccccc3CN3CCN(C)CC3)c2=O)c1` [Example 111, N-Methoxy-4-methyl-3-[3-[[[2-[(4-methyl-1-piperazinyl)methyl]phenyl]methyl]amino]-2-oxo-1(2H)-pyrazinyl]-benzamide], the negative-log IC50 (pIC50) was 7.1.
With `Cc1c(F)cc(C(=O)NC2CC2)cc1-n1ccnc(NC(C)(C)c2ccccc2OCCNC[C@H](C)O)c1=O` [Example 258, N-Cyclopropyl-3-fluoro-5-[3-[[1-[2-[2-[[(2S)-2-hydroxypropyl]amino]ethoxy]phenyl]-1-methylethyl]amino]-2-oxo-1(2H)-pyrazinyl]-4-methyl-benzamide], the pIC50 came out at 10.4.
With `Cc1ccc(C(=O)NC2CC2)cc1-n1ccnc(NC(C)(C)c2ccccc2OCCC2CCNCC2)c1=O` [Example 217, N-Cyclopropyl-4-methyl-3-[3-[[1-methyl-1-[2-[2-(4-piperidinyl)ethoxy]phenyl]ethyl]amino]-2-oxo-1(2H)-pyrazinyl]-benzamide] the figure was 9.6; with `Cc1c(F)cc(C(=O)NC2CC2)cc1-n1ccnc(NC(C)(C)c2ccccc2OCCNC(C)C)c1=O` [Example 254, N-Cyclopropyl-3-fluoro-4-methyl-5-[3-[[1-methyl-1-[2-[2-[(1-methylethyl)amino]ethoxy]phenyl]ethyl]amino]-2-oxo-1(2H)-pyrazinyl]-benamide], 10.2.
Turning to `Cc1ccc(C(=O)NC2CC2)cc1-n1cc(Cl)nc(NCc2ccccc2)c1=O` [Example 109, 3-[5-Chloro-2-oxo-3-[(phenylmethyl)amino]-1(2H)-pyrazinyl]-N-cyclopropyl-4-methyl-benzamide], the pIC50 amounted to 7.2.
Turning to `Cc1ccc(C(=O)NC2CC2)cc1-n1ccnc(NC(C)(C)c2ccccc2OCCNC[C@H](C)O)c1=O` [Example 213, N-Cyclopropyl-3-[3-[[1-[2-[2-[[(2S)-2-hydroxypropyl]amino]ethoxy]phenyl]-1-methylethyl]amino]-2-oxo-1(2H)-pyrazinyl]-4-methyl-6-benzamide], the negative-log IC50 (pIC50) came out at 9.9.
As for `Cc1ccc(C(=O)NC2CC2)cc1-n1ccnc(N[C@@H](c2ccccc2)C2CCNCC2)c1=O` [Example 101, N-Cyclopropyl-4-methyl-3-[2-oxo-3-[[(R)-phenyl-4-piperidinylmethyl]amino]-1(2H)-pyrazinyl]-benzamide, trifluoroacetate], the pIC50 is recorded as 7.4.
`Cc1ccc(C(=O)NC2CC2)cc1-n1ccnc(NCc2cnc3ccccc3c2)c1=O` [Example 28, N-Cyclopropyl-4-methyl-3-[2-oxo-3-[(3-quinolinylmethyl)amino]-1(2H)-pyrazinyl]-benzamide]: the negative logarithm of the IC50 (pIC50) stood at 6.2.
On to `CCNC[C@@H](O)COc1ccccc1C1(Nc2nccn(-c3cc(C(=O)NC4CC4)ccc3C)c2=O)CC1` [Example 300, N-Cyclopropyl-3-[3-{[1-(2-{[(2R)-3-(ethylamino)-2-hydroxypropyl]oxy}phenyl)cyclopropyl]amino}-2-oxopyrazin-1(2H)-yl]-4-methylbenzamide], for which the pIC50 is reported as 10.3.
For `Cc1ccc(C(=O)NC2CC2)cc1-n1ccnc(N[C@@H](c2ccccc2)[C@@H](C)CN2CCN(C3CCS(=O)(=O)C3)CC2)c1=O` (stereo partly drawn) [Example 191, N-Cyclopropyl-4-methyl-3-[3-[[(1R,2S)-2-methyl-1-phenyl-3-[4-(tetrahydro-1,1-dioxido-3-thienyl)-1-piperazinyl]propyl]amino]-2-oxo-1(2H)-pyrazinyl]-benzamide] the value was 9.6; for `Cc1ccc(C(=O)NC2CC2)cc1-n1ccnc(Oc2ccccc2)c1=O` [Example 116, N-Cyclopropyl-4-methyl-3-(2-oxo-3-phenoxy-1(2H)-pyrazinyl)-benzamide], 6.4; for `Cc1ccc(C(=O)NC2CC2)cc1-n1ccnc(N[C@@H](c2ccccc2)[C@@H](C)CN2CCC(C(F)(F)F)CC2)c1=O` [Example 177, N-Cyclopropyl-4-methyl-3-[3-[[(1R,2S)-2-methyl-1-phenyl-3-[4-(trifluoromethyl)-1-piperidinyl]propyl]amino]-2-oxo-1(2H)-pyrazinyl]-benzamide], 9.
With `CCc1ccc(C(=O)NC2CC2)cc1-n1ccnc(NC(C)(C)c2ccccc2OCCN)c1=O` [Example 292, 3-[3-({1-[2-(2-Aminoethoxy)phenyl]-1-methylethyl}amino)-2-oxopyrazin-1(2H)-yl]-N-cyclopropyl-4-ethylbenzamide], the pIC50 is on record as 8.4.
For `Cc1ccc(C(=O)NC2CC2)cc1-n1ccnc(NCCCc2ccccc2)c1=O` [Example 36, N-Cyclopropyl-4-methyl-3-[2-oxo-3-[(3-phenylpropyl)amino]-1(2H)-pyrazinyl]-benzamide] the value was 6.8; for `Cc1ccc(C(=O)NC2CC2)cc1-n1ccnc(NCc2ccc(Oc3ccccc3)cc2)c1=O` [Example 45, N-Cyclopropyl-4-methyl-3-[2-oxo-3-[[(4-phenoxyphenyl)methyl]amino]-1(2H)-pyrazinyl]-benzamide], 6.5.
For `Cc1ccc(C(=O)NC2CC2)cc1-n1ccnc(NCc2ccccc2CN2CCN(C)CC2)c1=O` [Example 41, N-Cyclopropyl-4-methyl-3-[3-[[[2-[(4-methyl-1-piperazinyl)methyl]phenyl]methyl]amino]-2-oxo-1(2H)-pyrazinyl]-benzamide] the value was 7; for `Cc1ccc(C(=O)NC2CC2)cc1-n1ccnc(NC2(c3ccccc3OCCNCCF)CC2)c1=O` [Example 245, N-Cyclopropyl-3-[3-[[1-[2-[2-[(2-fluoroethyl)amino]ethoxy]phenyl]cyclopropyl]amino]-2-oxo-1(2H)-pyrazinyl]-4-methyl-benzamide], 9.5; for `Cc1ccc(C(=O)NC2CC2)cc1-n1ccnc(NC(C)(C)c2ccccc2OCCN2CCN(C)CC2)c1=O` [Example 202, N-Cyclopropyl-4-methyl-3-[3-[[1-methyl-1-[2-[2-(4-methyl-1-piperazinyl)ethoxy]phenyl]ethyl]amino]-2-oxo-1(2H)-pyrazinyl]-benzamide], 9.2.
With `Cc1ccc(C(=O)NC2CC2)cc1-n1ccnc(NC2(c3ccccc3OCCNCC(F)(F)F)CC2)c1=O` [Example 240, N-Cyclopropyl-4-methyl-3-[2-oxo-3-[[1-[2-[2-[(2,2,2-trifluoroethyl)amino]ethoxy]phenyl]cyclopropyl]amino]-1(2H)-pyrazinyl]-benzamide], the pIC50 was determined as 8.8.
For `Cc1ccc(C(=O)NC2CC2)cc1-n1ccnc(NCc2cccc(CN3CCN(C)CC3)c2)c1=O` [Example 40, N-Cyclopropyl-4-methyl-3-[3-[[[3-[(4-methyl-1-piperazinyl)methyl]phenyl]methyl]amino]-2-oxo-1(2H)-pyrazinyl]-benzamide] the value was 6.7; for `Cc1ccc(C(=O)NC2CC2)cc1-n1ccnc(N[C@@H](c2ccccc2)[C@@H](C)CN2CCN(C(C)C)CC2)c1=O` [Example 171, N-Cyclopropyl-4-methyl-3-[3-[[(1R,2S)-2-methyl-3-[4-(1-methylethyl)-1-piperazinyl]-1-phenylpropyl]amino]-2-oxo-1(2H)-pyrazinyl]-benzamide], 8.8; for `Cc1ccc(C(=O)NC2CC2)cc1-n1ccnc(N[C@@H](c2ccccc2)[C@@H](C)CNC2CCNCC2)c1=O` [Example 195, N-Cyclopropyl-4-methyl-3-[3-[[(1R,2S)-2-methyl-1-phenyl-3-(4-piperidinylamino)propyl]amino]-2-oxo-1(2H)-pyrazinyl]-benzamide], 8.8.
As to `Cc1cccc(CCNc2nccn(-c3cc(C(=O)NC4CC4)ccc3C)c2=O)c1` [Example 73, N-Cyclopropyl-4-methyl-3-[3-[[2-(3-methylphenyl)ethyl]amino]-2-oxo-1(2H)-pyrazinyl]-benzamide], the pIC50 is 7.1.
As to `Cc1ccc(C(=O)NC2CC2)cc1-n1ccnc(NCCc2cccc(O)c2)c1=O` [Example 71, N-Cyclopropyl-3-[3-[[2-(3-hydroxyphenyl)ethyl]amino]-2-oxo-1(2H)-pyrazinyl]-4-methyl-benzamide], the negative-log IC50 (pIC50) came out at 6.8.
With `Cc1ccc(C(=O)NC2CC2)cc1-n1ccnc(N[C@@H]2CCc3ccccc32)c1=O` [Example 17, N-Cyclopropyl-3-[3-[[(1R)-2,3-dihydro-1H-inden-1-yl]amino]-2-oxo-1(2H)-pyrazinyl]-4-methyl-benzamide], the pIC50 turned out to be 6.6.
